Here are results for eleven molecules from patent US12540148B2, “Lipophosphonoxins, their preparation and use” (USTAV ORGANICKE CHEMIE A BIOCHEMIE AV CR, V. V. I., priority 2019, dated 2026).

Values after ≈ are worked out from the molar mass of the structure shown. Where a name gives a salt, the structure may show the parent alone. Read-outs that look alike come from different tables or passages of the source.

Holding throughout (assay): MIC, microdilution method
Holding throughout (type): cell-based

The subject of test [1] is Enterobacter kobei 3683. Here is the method:
(§1) Disposable microtiter plates are used for testing. Samples are dissolved in infusion medium from brain and heart (BHI, HiMedia Laboraties Pvt. Ltd., Czech Republic) and Mueller-Hinton broth (HiMedia Laboraties, see above) to a final concentration ranging from 200 μg/ml to 1.5625 μg/ml. Plates are inoculated with a standard amount of test bacteria—the density of the inoculum in the well corresponds to 10^5-6 CFU/ml (colony forming units/ml, i.e. the number of viable bacterial cells/ml). MIC values are read after 24/48 hours of incubation at 37° C. as the minimum inhibitory concentration of the test substance at which bacterial growth is inhibited. The minimum bactericidal concentration (MBC) is characterized as the minimum concentration of the sample required to achieve irreversible inhibition, i.e. to kill the bacteria after a defined incubation period. MBC is determined by the inoculation method. Using an applicator, 10 μl from the well of a microtiter plate with a defined concentration of the test substance is taken to inoculate the surface of blood agar (Trios, Czech Republic). MBC is determined as the lowest concentration that inhibits the visible growth of the bacterium used on agar.

Test [2] has as its system Enterococcus faecalis ATCC 29212 = CCM 4224. Here is the method: as §1
Test [3] relates to Enterococcus faecium 419/ANA. Here is the method: as §1
The test system of test [4] is Escherichia coli ATCC 25922 = CCM 3954. Here is the method: as §1
In test [5] the test system is Escherichia coli CE5556. How it is done:
as §1

Test [6] deals with Pseudomonas aeruginosa ATCC 27853 = CCM 3955. Here is the method: as §1
The test system of test [7] is Pseudomonas aeruginosa R. Here is the method:
as §1

For test [8], the system named is Staphylococcus aureus 4591. Here is the method: as §1
The subject of test [9] is Staphylococcus aureus ATCC 29213 = CCM 4223. Here is the method: as §1
Test [10] relates to Staphylococcus epidermidis CCM 7221. How it is done:
as §1

Test [11] has as its system Candida albicans ATCC 90028 = CCM 8161.
The mark [12] stands for this setting: Escherichia coli, 24/48 hours at 37° C.
The mark [13] stands for this setting: Staphylococcus epidermidis, CCM7221.
The mark [14] stands for this setting: Enterobacter kobei, 3683, 24/48 hours at 37° C., read-out: MIC.
Setting [15] is: Enterococcus faecalis, 24/48 hours at 37° C., read-out: MIC.
The mark [16] stands for this setting: Enterococcus faecium, 419/ANA, 24/48 hours at 37° C., read-out: MIC.
The mark [17] stands for this setting: Escherichia coli, 24/48 hours at 37° C., read-out: MIC.
The mark [18] stands for this setting: Escherichia coli, CE5556, 24/48 hours at 37° C., read-out: MIC.
Where [19] appears, read: Pseudomonas aeruginosa, 24/48 hours at 37° C., read-out: MIC.
The mark [20] stands for this setting: Staphylococcus aureus, 4591, 24/48 hours at 37° C., read-out: MIC.
[21] abbreviates: Staphylococcus aureus, 24/48 hours at 37° C., read-out: MIC.
The mark [22] stands for this setting: Staphylococcus epidermidis, CCM7221, 24/48 hours at 37° C., read-out: MIC.
[23] abbreviates: Candida albicans, 24/48 hours at 37° C., read-out: MIC.

As for `CCCCOP(=O)(CCN(CCCN)CCCN)OCCCCCCCCCCOP(=O)(CCN(CCCN)CCCN)OCCCC.Cl.Cl.Cl.Cl.Cl.Cl` (stereo not drawn) [Example 41, Dibutyl decane-1,10-diyl bis((2-(bis(3-aminopropyl)amino)ethyl)phosphonate) hexahydrochloride], the MIC (usually the least concentration at which growth counts as inhibited) in test [1] (Enterobacter kobei, 3683) was greater than 128 µg/mL; in [2] (Enterococcus faecalis), 32 µg/mL; in test [3] (Enterococcus faecium, 419/ANA), 128 µg/mL; in test [4] (setting [12]) it was 64 µg/mL; in [5] (Escherichia coli, CE5556), 128 µg/mL; in [6] (Pseudomonas aeruginosa) it was 16 µg/mL. Further, the MIC in test [7] (Pseudomonas aeruginosa) is 8 µg/mL; in test [8] (Staphylococcus aureus, 4591), 2 µg/mL; in test [9] (Staphylococcus aureus), 2 µg/mL; in test [10] (setting [13]), 1 µg/mL; in test [11] (Candida albicans) it was 64 µg/mL.

In the case of `C=CP(=O)(OCCCCCCCCCCCCOP(=O)(C=C)OCC(C)C)OCC(C)C` (stereo not drawn) [Example 34, Diisobutyl dodecane-1,12-diyl bis(vinylphosphonate)], the MIC in test [1] (setting [14]) is greater than 128 µg/mL; in test [2] (setting [15]) it was 128 µg/mL (≈ 259 µM); in test [3] (setting [16]), greater than 128 µg/mL; in [4] (setting [17]), 32 µg/mL (≈ 64.7 µM); in [5] (setting [18]) it was 128 µg/mL (≈ 259 µM); in test [6] (setting [19]) it was greater than 128 µg/mL. Moreover, the MIC in [7] (setting [19]) was greater than 128 µg/mL; in test [8] (setting [20]), 16 µg/mL (≈ 32.4 µM); in test [9] (setting [21]), 8 µg/mL (≈ 16.2 µM); in test [10] (setting [22]), 4 µg/mL (≈ 8.09 µM); in [11] (setting [23]) it was 128 µg/mL (≈ 259 µM).

`CCCCCCCCCCCCCCOP(=O)(CCN(CCCNC(=N)N)CCCNC(=N)N)OC[C@H]1O[C@@H](n2ccc(=O)[nH]c2=O)C(O)C1O` (stereo partly drawn) [DR7030, reference compound]: the MIC in [4] (Escherichia coli, 0% BSA, read-out: MIC) was 2 µg/mL (≈ 2.68 µM); in [4] (Escherichia coli, 4% BSA, read-out: MIC) it was greater than 200 µg/mL; in test [9] (Staphylococcus aureus, 0% BSA, read-out: MIC) it was 2 µg/mL (≈ 2.68 µM); in test [9] (Staphylococcus aureus, 4% BSA, read-out: MIC), greater than 200 µg/mL.

Regarding “Hexan-1,8-diyl dihexyl bis((2-(bis(3-aminopropyl)amino)ethyl)phosphonate) hexahydrochloride [Example 35]”, the MIC in [1] (24/48 hours at 37° C.) was found to be 2 µg/mL; in test [2] (24/48 hours at 37° C.), 1 µg/mL; in test [3] (24/48 hours at 37° C.), 8 µg/mL; in [4] (24/48 hours at 37° C.), 0.5 µg/mL; in test [5] (24/48 hours at 37° C.), 1 µg/mL; in test [6] (24/48 hours at 37° C.) it was 2 µg/mL. For the same molecule, the MIC in [7] (24/48 hours at 37° C.) amounted to 2 µg/mL; in test [8] (24/48 hours at 37° C.), 1 µg/mL; in [9] (24/48 hours at 37° C.), 0.5 µg/mL; in test [10] (24/48 hours at 37° C.), 0.5 µg/mL; in test [11] (24/48 hours at 37° C.), 16 µg/mL.

In the case of `CCCCCCCCCCOP(=O)(CCN(CCCN)CCCN)OCCCCCCCCCCOP(=O)(CCN(CCCN)CCCN)OCCCCCCCCCC` (stereo not drawn) [Example 45, Decan-1,10-diyl didecyl bis((2-(bis(3-aminopropyl)amino)ethyl)-phosphonate) tetrahydrochloride], the MIC in test [1] (Enterobacter kobei, 3683) was greater than 128 µg/mL; in [2] (Enterococcus faecalis) it was 32 µg/mL; in test [3] (Enterococcus faecium, 419/ANA), 128 µg/mL; in test [4] (Escherichia coli), greater than 128 µg/mL; in test [5] (Escherichia coli, CE5556), greater than 128 µg/mL; in test [6] (Pseudomonas aeruginosa) it was 32 µg/mL. In addition, the MIC in test [7] (Pseudomonas aeruginosa) is 16 µg/mL; in test [8] (Staphylococcus aureus, 4591) it was 4 µg/mL; in [9] (Staphylococcus aureus), 4 µg/mL; in test [10] (setting [13]) it was 1 µg/mL; in test [11] (Candida albicans) it was 64 µg/mL.

As to “Hexan-1,8-diyl dioctyl bis((2-(bis(3-aminopropyl)amino)ethyl)phosphonate) hexahydrochloride [Example 36]”, the MIC was greater than 128 µg/mL in [1] (24/48 hours at 37° C.); greater than 128 µg/mL in [2] (24/48 hours at 37° C.); greater than 128 µg/mL in [3] (24/48 hours at 37° C.); 128 µg/mL in [4] (24/48 hours at 37° C.); greater than 128 µg/mL in test [5] (24/48 hours at 37° C.); greater than 128 µg/mL in test [6] (24/48 hours at 37° C.). In addition, the MIC in test [7] (24/48 hours at 37° C.) is 128 µg/mL; in test [8] (24/48 hours at 37° C.), 8 µg/mL; in test [9] (24/48 hours at 37° C.), 16 µg/mL; in test [10] (24/48 hours at 37° C.), 4 µg/mL; in test [11] (24/48 hours at 37° C.) it was 128 µg/mL.

As to `C=CP(=O)(OCCCCCCCCCCOP(=O)(C=C)OCC(C)C)OCC(C)C` (stereo not drawn) [Example 39, Decane-1,10-diyl diisobutyl bis(vinylphosphonate)], the MIC is greater than 128 µg/mL in [1] (setting [14]); 64 µg/mL (≈ 137 µM) in test [2] (setting [15]); 128 µg/mL (≈ 274 µM) in [3] (setting [16]); 128 µg/mL (≈ 274 µM) in [4] (setting [17]); 128 µg/mL (≈ 274 µM) in test [5] (setting [18]); 128 µg/mL (≈ 274 µM) in test [6] (setting [19]). Also, the MIC was 64 µg/mL (≈ 137 µM) in test [7] (setting [19]); 16 µg/mL (≈ 34.3 µM) in [8] (setting [20]); 32 µg/mL (≈ 68.6 µM) in test [9] (setting [21]); 8 µg/mL (≈ 17.1 µM) in test [10] (setting [22]); greater than 128 µg/mL in [11] (setting [23]).

`CCCCCOP(=O)(CCN(CCCN)CCCN)OCCCCCCCCCCOP(=O)(CCN(CCCN)CCCN)OCCCCC.Cl.Cl.Cl.Cl.Cl.Cl` (stereo not drawn) [Example 42, Decane-1,10-diyl dipentyl bis((2-(bis(3-aminopropyl)amino)-ethyl)phosphonate) hexahydrochloride]: the MIC in test [1] (Enterobacter kobei, 3683) was 64 µg/mL; in test [2] (Enterococcus faecalis) it was 4 µg/mL; in [3] (Enterococcus faecium, 419/ANA), 32 µg/mL; in test [4] (setting [12]), 2 µg/mL; in [5] (Escherichia coli, CE5556) it was 8 µg/mL; in test [6] (Pseudomonas aeruginosa), 4 µg/mL. Also, the MIC was found to be 8 µg/mL in [7] (Pseudomonas aeruginosa); 1 µg/mL in [8] (Staphylococcus aureus, 4591); 0.5 µg/mL in test [9] (Staphylococcus aureus); 0.5 µg/mL in test [10] (setting [13]); 16 µg/mL in [11] (Candida albicans).

Consider `CCCCOP(=O)(CCN(CCN)CCN)OCCCCCCCCCCOP(=O)(CCN(CCN)CCN)OCCCC.Cl.Cl.Cl.Cl.Cl.Cl` (stereo not drawn) [Example 56, Dibutyl decane-1,10-diyl bis((2-(bis(2-aminoethyl)amino)ethyl)phosphonate) hexahydrochloride], for which the MIC was 16 µg/mL in [1] (Enterobacter kobei, 3683); 2 µg/mL in test [2] (Enterococcus faecalis); 4 µg/mL in [3] (Enterococcus faecium, 419/ANA); 4 µg/mL in test [4] (setting [12]); 4 µg/mL in test [5] (Escherichia coli, CE5556); 4 µg/mL in [6] (Pseudomonas aeruginosa). The MIC in test [7] (Pseudomonas aeruginosa) is 8 µg/mL; in [8] (Staphylococcus aureus, 4591), 4 µg/mL; in test [9] (Staphylococcus aureus), 2 µg/mL; in test [10] (setting [13]) it was 4 µg/mL; in [11] (Candida albicans) it was 4 µg/mL.

With `CCCCOP(=O)(CCN(CCCN)CCCN)OCCCCCCCCCCCCCCOP(=O)(CCN(CCCN)CCCN)OCCCC.Cl.Cl.Cl.Cl.Cl.Cl` (stereo not drawn) [Example 52, Dibutyl tetradecane-1,14-diyl bis((2-(bis(3-aminopropyl)amino)ethyl)phosphonate) hexahydrochloride], the MIC in test [1] (Enterobacter kobei, 3683) amounted to 8 µg/mL; in [2] (Enterococcus faecalis), 1 µg/mL; in test [3] (Enterococcus faecium, 419/ANA) it was 2 µg/mL; in test [4] (setting [12]), 2 µg/mL; in test [5] (Escherichia coli, CE5556), 2 µg/mL; in test [6] (Pseudomonas aeruginosa) it was 4 µg/mL. Moreover, the MIC in test [7] (Pseudomonas aeruginosa) was 2 µg/mL; in [8] (Staphylococcus aureus, 4591), 1 µg/mL; in test [9] (Staphylococcus aureus) it was 1 µg/mL; in [10] (setting [13]) it was 0.5 µg/mL; in [11] (Candida albicans), 4 µg/mL.

Regarding `CCCCCCOP(=O)(CCN(CCCN)CCCN)OCCCCCCCCCCOP(=O)(CCN(CCCN)CCCN)OCCCCCC.Cl.Cl.Cl.Cl` (stereo not drawn) [Example 43, Decane-1,10-diyl dihexyl bis((2-(bis(3-aminopropyl)amino)-ethyl)phosphonate) tetrahydrochloride], the MIC in test [1] (Enterobacter kobei, 3683) came to 1 µg/mL; in [2] (Enterococcus faecalis), 0.5 µg/mL; in test [3] (Enterococcus faecium, 419/ANA), 1 µg/mL; in test [4] (setting [12]), 0.5 µg/mL; in test [5] (Escherichia coli, CE5556), 1 µg/mL; in [6] (Pseudomonas aeruginosa), 1 µg/mL. Moreover, the MIC in test [7] (Pseudomonas aeruginosa) came to 1 µg/mL; in [8] (Staphylococcus aureus, 4591), 0.5 µg/mL; in [9] (Staphylococcus aureus) it was 0.5 µg/mL; in test [10] (setting [13]) it was 0.5 µg/mL; in test [11] (Candida albicans) it was 1 µg/mL.
